Among the test systems are HT-29; HCT-116; UO-31; IGROV-1; OVCAR-4; SNB-19; RPMI-8226; SK-MEL-28; SK-MEL-2; K562; HCC 2998; A549; SF-295; SW-620; Malme-3M; SN12C; SR.
Experiment in all cases: inhibition of tumour cell growth, NCI panel, 48 h

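A five-concentration, 48-hour dose response in 96-well plates underlies each endpoint, interpolated linearly between surrounding concentrations. GI50 = concentration required for 50% inhibition of growth.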 Activity calls are given as the source filed them. Rule as the data show it: active = GI50 up to about 1.1 µM and inactive = higher.

As for `Cc1cccc(C2=C/C(=C(\SS/C(C(=O)c3ccc(OCC(=O)O)c(Cl)c3Cl)=C3\C=C(c4cccc(C)c4)SS3)C(=O)c3ccc(OCC(=O)O)c(Cl)c3Cl)SS2)c1`, the GI50 in the assay with HT-29 is 27.7 µM (inactive); with HCT-116, 10.2 µM (inactive); in the assay on UO-31, 13 µM (inactive); with IGROV-1 it was 12.1 µM (inactive); with OVCAR-4, 17.2 µM (inactive); with SNB-19, 10.9 µM (inactive). The GI50 in the assay with RPMI-8226 is 16.9 µM (inactive); in the assay with SK-MEL-28 it was 18.6 µM (inactive); with SK-MEL-2, 19.1 µM (inactive); in the assay on K562, 4.31 µM (inactive); in the assay with HCC 2998, 31 µM (inactive); with A549, 28.8 µM (inactive). For the same molecule, the GI50 in the assay with SF-295 was 24.5 µM (inactive); in the assay on SW-620 it was 18.1 µM (inactive); with Malme-3M it was 25.5 µM (inactive); in the assay on SN12C, 14.8 µM (inactive).
Consider `C[C@@H](CO)OCOCc1ccccc1`, for which the GI50 in the assay with HT-29, with HCT-116, in the assay on UO-31, in the assay on IGROV-1, in the assay on OVCAR-4 and in the assay with SNB-19 was > 100 µM (inactive) throughout. Further, the GI50 with RPMI-8226, with SK-MEL-28, in the assay with SK-MEL-2, with K562, with HCC 2998 and in the assay on A549 was > 100 µM (inactive) each time. Also, the GI50 in the assay with SF-295, with SW-620, in the assay on Malme-3M and in the assay with SN12C was > 100 µM (inactive) throughout.
As to `NNC(=O)N/N=C1\CNC(=O)C(=O)C1c1nc2ccccc2s1` (stereo unspecified), the GI50 in the assay with HT-29, with HCT-116, in the assay on UO-31, with IGROV-1, in the assay on OVCAR-4 and in the assay on SNB-19 was > 100 µM (inactive) throughout. The GI50 with RPMI-8226, with SK-MEL-28, in the assay with SK-MEL-2, with K562, in the assay on HCC 2998 and in the assay with A549 was > 100 µM (inactive) throughout. For the same molecule, the GI50 in the assay with SF-295, in the assay on SW-620, in the assay on Malme-3M and in the assay with SN12C was > 100 µM (inactive) throughout.
For `Cc1ccc(NC(=O)CC(=O)n2nc(-c3ccccc3)c(/N=N/c3ccc(Cl)cc3)c2-c2ccccc2)cc1`, the GI50 in the assay with HT-29 was 17.9 µM (inactive); with HCT-116, 19.5 µM (inactive); in the assay with UO-31 it was > 100 µM (inactive); with IGROV-1, 57.7 µM (inactive); in the assay with OVCAR-4, 23.3 µM (inactive); with SNB-19, 42.6 µM (inactive). Moreover, the GI50 in the assay on RPMI-8226 was 23.3 µM (inactive); in the assay with SK-MEL-28, > 100 µM (inactive); in the assay on SK-MEL-2, > 100 µM (inactive); in the assay on K562, 13.5 µM (inactive); in the assay with HCC 2998, 84.5 µM (inactive); with A549 it was 28.2 µM (inactive). Also, the GI50 was 58.9 µM (inactive) in the assay on SF-295, 15.2 µM (inactive) with SW-620, > 100 µM (inactive) in the assay with Malme-3M and 31.6 µM (inactive) in the assay with SN12C.
Turning to `O=C(Nc1cccc(Cl)c1)c1cc2cc(/N=N/c3ccc(Br)cc3)ccc2oc1=O`, the GI50 in the assay with HT-29 is 66.7 µM (inactive); with HCT-116 it was 37.2 µM (inactive); in the assay with UO-31, 14 µM (inactive); in the assay on IGROV-1, 51.5 µM (inactive); in the assay on OVCAR-4 it was 27.7 µM (inactive); with SNB-19, 25.1 µM (inactive). In addition, the GI50 with RPMI-8226 is 33.2 µM (inactive); with SK-MEL-28, 47.8 µM (inactive); in the assay on SK-MEL-2, 12.9 µM (inactive); in the assay with K562, 6.19 µM (inactive); with HCC 2998 it was 25.8 µM (inactive); in the assay with A549, 90.6 µM (inactive). Further, the GI50 was 42 µM (inactive) in the assay on SF-295, 29.3 µM (inactive) in the assay on SW-620, > 100 µM (inactive) in the assay with Malme-3M and 32.1 µM (inactive) with SN12C.
With `OC1CN(OC/C=C/c2ccccc2)CC(O)C1O` (stereo unspecified), the GI50 in the assay on HT-29, in the assay on HCT-116, with UO-31, with IGROV-1, in the assay on OVCAR-4 and in the assay on SNB-19 was > 100 µM (inactive) in each case. The GI50 is 44.3 µM (inactive) with RPMI-8226; > 100 µM (inactive) in the assay with SK-MEL-28; > 100 µM (inactive) with SK-MEL-2; > 100 µM (inactive) in the assay with K562; > 100 µM (inactive) in the assay on HCC 2998; > 100 µM (inactive) in the assay with A549. In addition, the GI50 is > 100 µM (inactive) in the assay on SF-295, 36.1 µM (inactive) in the assay with SW-620, > 100 µM (inactive) in the assay on Malme-3M and > 100 µM (inactive) in the assay on SN12C.
For `NC(CCSCCF)C(=O)O` (stereo unspecified), the GI50 with HT-29, in the assay with HCT-116, with UO-31, in the assay with IGROV-1, in the assay with OVCAR-4 and in the assay on SNB-19 was > 100 µM (inactive) each time. Also, the GI50 with RPMI-8226, in the assay with SK-MEL-28, with SK-MEL-2, with K562, in the assay on A549 and with SW-620 was > 100 µM (inactive) throughout. The GI50 with SR and in the assay on SN12C was > 100 µM (inactive) in each case.
`CCOC(=O)/C(=C/c1ccccc1Br)P(=O)(OCC)OCC`: the GI50 in the assay on HT-29 was 2.82 µM (inactive); in the assay on HCT-116, 3.15 µM (inactive); in the assay on IGROV-1, 3.28 µM (inactive); in the assay on OVCAR-4 it was 1.58 µM (inactive); with SNB-19 it was 2.49 µM (inactive); in the assay with RPMI-8226, 0.815 µM (active). Further, the GI50 in the assay with SK-MEL-28 is 2.03 µM (inactive); with SK-MEL-2, 1.84 µM (inactive); in the assay on K562, 0.298 µM (active); in the assay with HCC 2998, 1.78 µM (inactive); with A549, 2.67 µM (inactive); in the assay with SF-295, 3.96 µM (inactive). For the same molecule, the values for the GI50 in the assay on SW-620, in the assay with Malme-3M and with SN12C were 1.28 µM (inactive), 1.84 µM (inactive) and 2.06 µM (inactive), respectively.
In the case of `Cn1cnc([N+](=O)[O-])c1Sc1nnnn1-c1ccccc1`, the GI50 in the assay with HT-29 is 15.7 µM (inactive); with HCT-116 it was 11.3 µM (inactive); with UO-31 it was 13.7 µM (inactive); in the assay on IGROV-1, 16.2 µM (inactive); in the assay on OVCAR-4, 10.4 µM (inactive); with SNB-19 it was 33.2 µM (inactive). The GI50 in the assay with RPMI-8226 was 11.4 µM (inactive); in the assay with SK-MEL-28 it was 14.4 µM (inactive); in the assay on SK-MEL-2 it was 14.1 µM (inactive); in the assay with K562 it was 3.94 µM (inactive); in the assay on HCC 2998, 18.5 µM (inactive); in the assay with A549 it was 23.9 µM (inactive). The GI50 was 17.8 µM (inactive) in the assay with SF-295, 7.05 µM (inactive) in the assay on SW-620, 7.76 µM (inactive) with Malme-3M and 15.7 µM (inactive) in the assay with SN12C.

The values are drawn from ChEMBL document CHEMBL1201862, “PubChem BioAssay data set” (2004).
